Reference: publication PMC7942396, “Drug Repurposing Screen for Compounds Inhibiting the Cytopathic Effect of SARS-CoV-2” (Frontiers in Pharmacology, 2021)
Structures can show the parent of a compound that is named as a salt. Where two headings read alike, the source gives them in different places.

What was measured:
[1] = system: SARS-CoV-2 (USA_WA1/2020); assay: microbe, parasite or virus in culture; type: cell-based; settings: for EC50: read-out: CPE EC50
[2] = cytotoxicity counter-assay, Vero E6 cells without virus
[3] = read-out: Cytotox CC50, cytotoxicity counter-assay, Vero E6 cells without virus
[4] = SARS-CoV-2 CPE assay, Vero E6 cells, confirmed anti-SARS-CoV-2 compounds
[5] = SARS-CoV-2 CPE assay, Vero E6 cells, efficacy
[6] = SARS-CoV-2 CPE assay, Vero E6 cells
[7] = Vero E6 cells without virus, 72 h
[8] = […], DMSO 0%, no-virus control 100%, hit confirmation

Molecule | % Cytotox (Vero E6 cells; [2]) | CC50 (Vero E6 cells; [3]) | EC50 [1, 4] | CPE % Efficacy [1, 5] | also measured
CC(C)CCC[C@@H](C)[C@H]1CC[C@H]2[C@@H]3CC=C4C[C@@H](OC(=O)NCCN(C)C)CC[C@]4(C)[C@H]3CC[C@]12C.Cl | 37.0% | 10 µM | 11.2 µM | 40.5% | 
CN1CCN(C(=O)c2ccc(Nc3nccc(-c4cccs4)n3)cc2Cl)CC1 | 55.6% | 10 µM | 11.2 µM | 71.5% | 
10058-F4 | 34.2% |  |  |  | CPE % Efficacy [1, 6]: 62.2%; EC50 [1, 6]: 12.6 µM
COC(=O)CC[C@@H](C)[C@H]1CC[C@H]2[C@@H]3CC[C@@H]4C[C@H](OC(C)=O)CC[C@]4(C)[C@H]3C[C@H](O)[C@]12C (racemic) | 0.0% |  |  |  | CPE % Efficacy [1, 6]: 62.5%; EC50 [1, 6]: 12.6 µM
COc1ccccc1N1CCN(CC[C@@](C)(C(=O)C2CCCCC2)c2ccccc2)CC1 [(R)-(-)-LY 426965 dihydrochloride, reference compound] |  |  |  |  | % Cytotox (Vero E6 cells; [7]): <30%; CPE % Efficacy [1, 8]: 110.7%; EC50 [1]: 10 µM
COc1cccc(NC[C@@H](O)Cn2c3ccc(Br)cc3c3cc(Br)ccc32)c1 [(R)-P7C3-Ome] | 32.2% | 11.2 µM |  |  | CPE % Efficacy [1, 6]: 63.4%; EC50 [1, 6]: 12.6 µM
Nc1nc2c(c(N3CC[C@@H](N)C3)n1)CCCc1ccccc1-2 [A 943931] | 34.8% | 12.6 µM | 11.2 µM | 104.3% | 
Cc1c(NC(=O)OC[C@@H]2COCCN2)cn2ncnc(Nc3ccc4c(cnn4Cc4cccc(F)c4)c3)c12 [AC480 (BMS-599626)] | 67.2% | 12.6 µM | 11.2 µM | 62.3% | 
Nc1ncnc2c1c(-c1cccc(OCc3ccccc3)c1)cn2C1CC(CN2CCCC2)C1 (stereo not shown) [ADW-742] | 106.8% | 12.6 µM | 7.94 µM | 55.7% | 
CN1CCCCC1Cn1cc(C(=O)c2cc([N+](=O)[O-])ccc2I)c2ccccc21 (stereo not shown) [AM1241, reference compound] |  |  |  |  | % Cytotox (Vero E6 cells; [7]): <30%; CPE % Efficacy [1, 8]: 97.6%; EC50 [1]: 10 µM
O=C1NC(=O)/C(=C/c2ccc3c(c2)OC(F)(F)O3)S1 [AS-604850] | 31.8% | 11.2 µM |  |  | CPE % Efficacy [1, 6]: 49.2%; EC50 [1, 6]: 12.6 µM
C[C@@H]1CN(CC(=O)N2CC(C)(C)c3ncc(Cc4ccc(F)cc4)cc32)[C@@H](CN2CCOC[C@H]2C)CN1 [AT-IAP] | 0.0% |  |  |  | CPE % Efficacy [1, 6]: 56.2%
Cl.Cl.Clc1ccccc1CNCC1CCC(CNCc2ccccc2Cl)CC1 (stereo not shown) [AY 9944 dihydrochloride] | 48.2% | 12.6 µM | 3.16 µM | 41.0% | 
CN1CCN(S(=O)(=O)c2ccc(-c3cnc(N)c(C(=O)Nc4cccnc4)n3)cc2)CC1 [AZD-2858] | 41.0% | 12.6 µM |  | 80.0% | 
O=c1[nH]c2ccccc2n1C1CCN(Cc2ccc(-c3nc4cc5nc[nH]c5cc4nc3-c3ccccc3)cc2)CC1 [Akt-I-1,2] | 34.2% | 12.6 µM |  |  | CPE % Efficacy [1, 6]: 91.3%; EC50 [1, 6]: 11.2 µM
CCCCCCCCCCCCCCCc1cccc(O)c1C(=O)O [Anacardic Acid] | 72.9% |  | 3.98 µM | 89.6% | 
C/C1=C/CCC2=CC(OC2=O)C(C)(C)/C=C\C1=O (stereo not shown) [Asteriscunolide D, reference compound] |  |  |  |  | % Cytotox (Vero E6 cells; [7]): <30%; CPE % Efficacy [1, 8]: 93.3%; EC50 [1]: 10 µM
NC(=O)c1ccc2nc(-c3ccc(Oc4ccc(Cl)cc4)cc3)[nH]c2c1 [BML-277] | 33.9% |  |  | 73.6% | 
CC(C)c1cnn2c(NCc3ccccc3)cc(NCCCCCCN)nc12 [BS-181] | 32.0% |  | 10 µM | 83.4% | 
CO/C1=C\C(C)=C\[C@@H](C)[C@@H](O)[C@@H](C)C/C(C)=C/C=C/[C@H](OC)[C@@H]([C@@H](C)[C@@H](O)[C@H](C)[C@@]2(O)C[C@@H](O)[C@H](C)[C@@H](C(C)C)O2)OC1=O [Bafilomycin A1 from Streptomyces griseus] | 58.6% | 0.1 µM | 0.0113 µM | 69.3% | 

Molecule | % Cytotox (Vero E6 cells; [2]) | CC50 (Vero E6 cells; [3]) | EC50 [1, 4] | CPE % Efficacy [1, 5] | also measured
Cl.O=C1Nc2nc(-c3c(O)cccc3OCC3CC3)cc([C@@H]3CCCNC3)c2CO1 [Bay-65-1942 hydrochloride] | 23.5% | 11.2 µM |  |  | CPE % Efficacy [1, 6]: 53.9%; EC50 [1, 6]: 11.2 µM
COc1cc2c3cc1Oc1c(OC)c(OC)cc4c1[C@@H](Cc1ccc(O)c(c1)Oc1ccc(cc1)C[C@@H]3N(C)CC2)N(C)CC4 [Berbamine dihydrochloride] | 50.1% | 11.2 µM | 2.82 µM | 79.0% | 
C/C=C(/C)C(=O)O[C@H]1[C@@H]2[C@H](C)C(=O)O[C@@H]2C[C@@H](C)[C@@H]2C=CC(=O)[C@]21C [Brevelin A] | 59.7% | 11.2 µM | 3.55 µM | 61.5% | 
CC(C)(C)c1ccc(CN2CCN(C(c3ccccc3)c3ccc(Cl)cc3)CC2)cc1.Cl.Cl (stereo not shown) [Buclizine HCl] | 0.0% |  |  |  | CPE % Efficacy [1, 6]: 86.2%; EC50 [1, 6]: 14.1 µM
CCCCCCOc1ccc(C(=N)N(CCCC)CCCC)c2ccccc12.Cl [Bunamidine hydrochloride] | 109.2% | 11.2 µM | 4.47 µM | 84.9% | 
COc1cc2nc(N3CCC(N4CCCCC4)CC3)nc(NC3CCCCCC3)c2cc1OC.Cl.Cl [C 021 dihydrochloride] | 108.9% | 7.08 µM | 3.55 µM | 79.7% | 
O=C(NCc1ccccc1)[C@H](Cc1ccccc1)NC(=O)[C@H]1O[C@@H]1C(=O)NCCc1ccc(O)cc1 [CAA-0225, reference compound] |  |  |  |  | % Cytotox (Vero E6 cells; [7]): <30%; CPE % Efficacy [1, 8]: 99.3%; EC50 [1]: 0.2 µM
Br.O=C(CN1C2=NCCN2c2ccccc21)c1ccc(-c2ccccc2)cc1 [CCT 031374 hydrobromide] | 33.8% | 12.6 µM | 7.94 µM | 63.4% | 
CCc1cc(-c2n[nH]c(C)c2-c2ccc3c(c2)OCCO3)c(O)cc1O [CCT-018159] | 34.2% |  |  |  | CPE % Efficacy [1, 6]: 74.6%; EC50 [1, 6]: 14.1 µM
Cn1cc(-c2ccc(-c3cncc(Cl)c3N3CCC4(CCNC4=O)CC3)cc2)cn1 [CCT-251545] | 0.0% |  |  |  | CPE % Efficacy [1, 6]: 65.2%; EC50 [1, 6]: 14.1 µM
Cn1ncc2cc(-c3cnc(N)c(Cl)c3N3CCC4(CCNC4=O)CC3)ccc21 [CCT-251921] | 39.8% |  | 2.82 µM | 87.9% | 
Cc1c(CCOc2ccc(C(=O)O)cc2)c2cc(Cl)ccc2n1C(c1ccccc1)c1ccccc1 [CDIBA] | 77.1% | 12.6 µM |  |  | CPE % Efficacy [1, 6]: 52.2%; EC50 [1, 6]: 14.1 µM
OCCCNc1cc(-c2ccnc(Nc3cccc(Cl)c3)n2)ccn1 [CGP-60474] |  |  |  |  | % Cytotox (Vero E6 cells): 61.3%; CC50 (Vero E6 cells): 0.11 µM; CPE % Efficacy [1]: 104.5%; EC50 [1]: 6.31 µM
CCCCCCCc1ccc(CCc2cccc(O)c2C(=O)O)cc1 [MG-149] | 23.4% |  |  |  | 
CCC(C)CNCC(=O)N1CCc2sccc2C1COc1cccc(C)c1.Cl (stereo not shown) [RU-SKI 43 (hydrochloride)] | 21.4% | 8.91 µM |  |  | 
CN(C)CCCN1c2ccccc2Sc2ccc(C(F)(F)F)cc21 [Triflupromazine hydrochloride] |  |  |  |  | EC50 ([1]; Severe acute respiratory syndrome coronavirus 2, Vero C1008, SARS-CoV-2 CPE assay, Vero E6 cells, confirmed anti-SARS-CoV-2 compounds): 10 µM; Emax ([1]; Severe acute respiratory syndrome coronavirus 2, Vero C1008, SARS-CoV-2 CPE assay, Vero E6 cells, efficacy, read-out: CPE % Efficacy): 77.3%
CN(C)C(=O)COC(=O)Cc1ccc(OC(=O)c2ccc(NC(=N)N)cc2)cc1 [camostat, reference compound] |  |  |  |  | Activity in the Vero E6 assay [1]: not active
N=C(N)Nc1ccc(C(=O)Oc2ccc3cc(C(=N)N)ccc3c2)cc1 [nafamstat, reference compound] |  |  |  |  | Activity in the Vero E6 assay [1]: not active
Oligomycin A |  |  | 3.98 µM | 104.5% | 
